For ten compounds, IC50 results are on record in patent US9150566B2, “2-(1,2,3-triazol-2-yl)benzamide and 3-(1,2,3-triazol-2-YL)picolinamide derivatives as orexin receptor antagonists” (ACTELION PHARMACEUTICALS LTD., priority 2011, dated 2015).

The term IC50 denotes the midpoint of a concentration-inhibition curve.

The target of data set [1] is CYP3A4 (Homo sapiens (Human), UniProt P08684). The data set can be described thus: CYP3A4 inhibition assay (human liver microsomes, testosterone 6β-hydroxylation). Conditions: read-out: CYP3A4 IC50, 40 μM testosterone.
Data set [2] concerns the target human orexin-1 receptor (Homo sapiens (Human), UniProt O43613). Nature of the data set: In vitro intracellular calcium measurements (FLIPR), antagonistic activity on orexin-1 receptor. The class given is cell-based. To be noted: read-out: IC50 OX1. The essentials:
(§1)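 CHO cells expressing human orexin-1 or orexin-2 receptor were seeded overnight, preincubated with antagonist for 120 min, then stimulated with agonist in a FLIPR Tetra.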
In general terms: Calcium assays in cells follow changes in intracellular calcium, usually with a dye or a luminescent sensor.

For data set [3], the target named is human orexin-2 receptor (Homo sapiens (Human), UniProt O43614). Nature of the data set: In vitro intracellular calcium measurements (FLIPR), antagonistic activity on orexin-2 receptor. The class given is cell-based. To be noted: read-out: IC50 OX2. The essentials: as §1
[4] abbreviates: CHO cells expressing human orexin-1 receptor, FLIPR, 3 nM orexin-A agonist, 120 min antagonist incubation, geometric mean if determined several times.
Where [5] appears, read: CHO cells expressing human orexin-2 receptor, FLIPR, 3 nM orexin-A agonist, 120 min antagonist incubation, geometric mean if determined several times.

The structures appear in SMILES notation. Read-outs that look alike come from different tables or passages of the source.

Sequence of human orexin-1 receptor (O43613 whole entry): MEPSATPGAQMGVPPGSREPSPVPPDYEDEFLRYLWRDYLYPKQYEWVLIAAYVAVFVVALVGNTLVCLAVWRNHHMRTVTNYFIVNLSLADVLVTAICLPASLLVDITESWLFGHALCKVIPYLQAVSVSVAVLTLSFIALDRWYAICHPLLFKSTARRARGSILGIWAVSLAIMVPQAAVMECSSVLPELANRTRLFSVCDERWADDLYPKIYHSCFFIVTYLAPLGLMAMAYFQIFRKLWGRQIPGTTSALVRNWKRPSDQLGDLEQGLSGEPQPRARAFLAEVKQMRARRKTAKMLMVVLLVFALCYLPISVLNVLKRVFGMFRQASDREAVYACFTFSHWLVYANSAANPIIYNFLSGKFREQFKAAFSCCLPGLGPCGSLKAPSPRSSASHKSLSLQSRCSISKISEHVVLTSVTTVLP
Sequence of human orexin-2 receptor (O43614 whole entry): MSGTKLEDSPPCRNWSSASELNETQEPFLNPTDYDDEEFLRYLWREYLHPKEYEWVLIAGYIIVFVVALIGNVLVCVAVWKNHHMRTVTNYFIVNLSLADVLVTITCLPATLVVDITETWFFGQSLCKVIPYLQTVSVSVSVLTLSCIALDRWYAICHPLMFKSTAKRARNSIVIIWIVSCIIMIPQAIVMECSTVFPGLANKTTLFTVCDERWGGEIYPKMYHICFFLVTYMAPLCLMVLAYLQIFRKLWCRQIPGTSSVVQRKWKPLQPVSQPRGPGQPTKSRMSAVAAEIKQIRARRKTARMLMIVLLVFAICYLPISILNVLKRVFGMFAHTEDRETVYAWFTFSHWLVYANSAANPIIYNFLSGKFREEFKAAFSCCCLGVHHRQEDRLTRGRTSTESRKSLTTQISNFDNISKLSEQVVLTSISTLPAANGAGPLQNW
Sequence of CYP3A4 (P08684 whole entry): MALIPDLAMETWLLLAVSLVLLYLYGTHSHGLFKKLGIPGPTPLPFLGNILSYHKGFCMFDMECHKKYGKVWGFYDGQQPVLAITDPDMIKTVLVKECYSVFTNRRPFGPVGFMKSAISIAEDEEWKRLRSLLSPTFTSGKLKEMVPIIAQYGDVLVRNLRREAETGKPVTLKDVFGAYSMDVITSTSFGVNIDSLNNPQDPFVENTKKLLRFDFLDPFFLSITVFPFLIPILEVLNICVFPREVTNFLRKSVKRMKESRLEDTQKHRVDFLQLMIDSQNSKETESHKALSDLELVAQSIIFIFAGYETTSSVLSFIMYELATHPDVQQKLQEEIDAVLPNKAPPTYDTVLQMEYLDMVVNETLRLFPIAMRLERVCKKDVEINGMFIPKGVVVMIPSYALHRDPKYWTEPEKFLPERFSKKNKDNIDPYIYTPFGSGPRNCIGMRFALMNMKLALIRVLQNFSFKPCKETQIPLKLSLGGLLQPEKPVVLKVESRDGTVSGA

Consider `Cc1ccc(-n2cccn2)cc1C[C@@H]1COCCN1C(=O)c1cccc(C)c1-n1nccn1` [Example 190, [(R)-3-(2-Methyl-5-pyrazol-1-yl-benzyl)-morpholin-4-yl]-(3-methyl-2-[1,2,3]triazol-2-yl-phenyl)-methanone], for which the IC50 turned out to be 26000 nM in data set [1], 25 nM in data set [2] (setting [4]) and 3770 nM in data set [3] (setting [5]).

Consider `Cc1cccc(C(=O)N2C[C@@H](C)OC[C@H]2Cc2cccc(-c3ncccn3)c2)c1-n1nccn1` [Example 111, [(2R,5R)-2-Methyl-5-(3-pyrimidin-2-yl-benzyl)-morpholin-4-yl]-(3-methyl-2-[1,2,3]triazol-2-yl-phenyl)-methanone], for which the values for the IC50 in data set [1], in data set [2] (setting [4]) and in data set [3] (setting [5]) were 40000 nM, 7 nM and 983 nM, respectively.

Turning to `O=C(c1ccccc1-n1nccn1)N1CCOC[C@H]1Cc1cccc(-c2nccs2)c1` [Example 44, [(R)-3-(3-Thiazol-2-yl-benzyl)-morpholin-4-yl]-(2-[1,2,3]triazol-2-yl-phenyl)-methanone], the IC50 came out at 2000 nM in data set [1], 2 nM in data set [2] (setting [4]) and 457 nM in data set [3] (setting [5]).

Turning to `Cc1ccc(-n2nccn2)cc1C[C@@H]1COCCN1C(=O)c1ccccc1-n1nccn1` [Example 121, [(R)-3-(2-Methyl-5-[1,2,3]triazol-2-yl-benzyl)-morpholin-4-yl]-(2-[1,2,3]triazol-2-yl-phenyl)-methanone], the IC50 in data set [1] is 18000 nM; in data set [2] (setting [4]), 26 nM; in data set [3] (setting [5]), 1640 nM.

In the case of `Cc1ccc(C(=O)N2C[C@H](C)OC[C@H]2Cc2cccc(-n3nccn3)c2)c(-n2nccn2)c1` [Example 96, [(2S,5R)-2-Methyl-5-(3-[1,2,3]triazol-2-yl-benzyl)-morpholin-4-yl]-(4-methyl-2-[1,2,3]triazol-2-yl-phenyl)-methanone], the values for the IC50 in data set [1], in data set [2] and in data set [3] were 28000 nM, 10 nM and 390 nM, respectively.

For the compound `COc1ccc(C[C@@H]2COCCN2C(=O)c2ccc(C)cc2-n2nccn2)cc1-c1ncon1` [Example 60, [(R)-3-(4-Methoxy-3-[1,2,4]oxadiazol-3-yl-benzyl)-morpholin-4-yl]-(4-methyl-2-[1,2,3]triazol-2-yl-phenyl)-methanone], the concentration for half-maximal inhibition (IC50) stood at 41000 nM in data set [1], 0.7 nM in data set [2] (setting [4]) and 34 nM in data set [3] (setting [5]).

`COc1ccc(-n2nccn2)c(C(=O)N2CCOC[C@H]2Cc2cc(-n3nccn3)ccc2F)c1F` [Example 133, (2-Fluoro-3-methoxy-6-[1,2,3]triazol-2-yl-phenyl)-[(R)-3-(2-fluoro-5-[1,2,3]triazol-2-yl-benzyl)-morpholin-4-yl]-methanone]: the IC50 came out at 37000 nM in data set [1], 22 nM in data set [2] (setting [4]) and 2600 nM in data set [3] (setting [5]).

On to `Cc1ccc(C(=O)N2CCOC[C@H]2Cc2cc(-n3nccn3)ccc2C)c(-n2nccn2)c1` [Example 123, [(R)-3-(2-Methyl-5-[1,2,3]triazol-2-yl-benzyl)-morpholin-4-yl]-(4-methyl-2-[1,2,3]triazol-2-yl-phenyl)-methanone], for which the IC50 in data set [1] is 27000 nM; in data set [2] it was 5 nM; in data set [3] it was 939 nM.

For the compound `O=C(c1ccc(C(F)(F)F)cc1-n1nccn1)N1CCOC[C@H]1Cc1cc(-n2nccn2)ccc1F` [Example 138, [(R)-3-(2-Fluoro-5-[1,2,3]triazol-2-yl-benzyl)-morpholin-4-yl]-(2-[1,2,3]triazol-2-yl-4-trifluoromethyl-phenyl)-methanone], the 50% inhibitory concentration (IC50) was 7400 nM in data set [1], 4 nM in data set [2] (setting [4]) and 159 nM in data set [3] (setting [5]).

Turning to `C[C@@H]1CN(C(=O)c2cccc(Cl)c2-n2nccn2)[C@H](Cc2cc(-c3ncccn3)ccc2F)CO1` [Example 154, (3-Chloro-2-[1,2,3]triazol-2-yl-phenyl)-[(2R,5R)-5-(2-fluoro-5-pyrimidin-2-yl-benzyl)-2-methyl-morpholin-4-yl]-methanone], the results for the IC50 in data set [1], in data set [2] (setting [4]) and in data set [3] (setting [5]) were 24000 nM, 13 nM and 447 nM, respectively.
